Results: PubChem BioAssay (NCI)
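These data come from cells grown in 96-well plates and exposed to compound for 48 hours at five concentrations. GI50: concentration for 50% inhibition of growth. Definition used: TGI = concentration required for complete inhibition of growth.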

Assays:
Test in all cases: inhibition of tumour cell growth, NCI panel, 48 h
786-0 renal = tested on: 786-0 renal
A498 renal = tested on: A498 renal
A549 NSCLC = tested on: A549 NSCLC
ACHN renal = tested on: ACHN renal
BT-549 breast = tested on: BT-549 breast
CAKI-1 renal = tested on: CAKI-1 renal
CCRF-CEM leukemia = tested on: CCRF-CEM leukemia
COLO 205 colon = tested on: COLO 205 colon
DU-145 prostate = tested on: DU-145 prostate
EKVX NSCLC = tested on: EKVX NSCLC
HCC-2998 colon = tested on: HCC-2998 colon
HCT-116 colon = tested on: HCT-116 colon
HCT-15 colon = tested on: HCT-15 colon
HL-60(TB) leukemia = tested on: HL-60(TB) leukemia
HOP-62 NSCLC = tested on: HOP-62 NSCLC
HOP-92 NSCLC = tested on: HOP-92 NSCLC
HS 578T breast = tested on: HS 578T breast
HT29 colon = tested on: HT29 colon
IGROV1 ovarian = tested on: IGROV1 ovarian
K-562 leukemia = tested on: K-562 leukemia
KM12 colon = tested on: KM12 colon
LOX IMVI melanoma = tested on: LOX IMVI melanoma
M14 melanoma = tested on: M14 melanoma
MALME-3M melanoma = tested on: MALME-3M melanoma
MDA-MB-231 breast = tested on: MDA-MB-231 breast
MDA-MB-435 = tested on: MDA-MB-435
MOLT-4 leukemia = tested on: MOLT-4 leukemia
NCI-H226 lung = tested on: NCI-H226 lung
NCI-H23 lung = tested on: NCI-H23 lung
NCI-H460 lung = tested on: NCI-H460 lung
NCI-H522 lung = tested on: NCI-H522 lung
NCI/ADR-RES ovarian = tested on: NCI/ADR-RES ovarian
OVCAR-3 ovarian = tested on: OVCAR-3 ovarian
OVCAR-4 ovarian = tested on: OVCAR-4 ovarian
OVCAR-5 ovarian = tested on: OVCAR-5 ovarian
OVCAR-8 ovarian = tested on: OVCAR-8 ovarian
PC-3 prostate = tested on: PC-3 prostate
RPMI-8226 leukemia = tested on: RPMI-8226 leukemia
RXF 393 renal = tested on: RXF 393 renal
SF-268 CNS = tested on: SF-268 CNS
SF-295 CNS = tested on: SF-295 CNS
SF-539 CNS = tested on: SF-539 CNS
SK-MEL-2 melanoma = tested on: SK-MEL-2 melanoma
SK-MEL-28 melanoma = tested on: SK-MEL-28 melanoma
SK-MEL-5 melanoma = tested on: SK-MEL-5 melanoma
SK-OV-3 ovarian = tested on: SK-OV-3 ovarian
SN12C renal = tested on: SN12C renal
SNB-19 CNS = tested on: SNB-19 CNS
SNB-75 CNS = tested on: SNB-75 CNS
SR leukemia = tested on: SR leukemia
SW-620 colon = tested on: SW-620 colon
T-47D breast = tested on: T-47D breast
TK-10 renal = tested on: TK-10 renal
U251 CNS = tested on: U251 CNS
UACC-257 melanoma = tested on: UACC-257 melanoma
UACC-62 melanoma = tested on: UACC-62 melanoma
UO-31 renal = tested on: UO-31 renal

## C=CCOC1=CC(=O)c2ccccc2C1=O
786-0 renal
  GI50: 4.88 µM
  TGI: 15.6 µM
A498 renal
  GI50: 1.42 µM
  TGI: 19.8 µM
A549 NSCLC
  GI50: 2.12 µM
  TGI: 4.85 µM
ACHN renal
  GI50: 3.23 µM
  TGI: 11.9 µM
BT-549 breast
  GI50: 11.1 µM
  TGI: 23.2 µM
CAKI-1 renal
  GI50: 15.8 µM
  TGI: 68.7 µM
CCRF-CEM leukemia
  GI50: 4.37 µM
  TGI: 41.1 µM
COLO 205 colon
  GI50: 1.7 µM
  TGI: 3.29 µM
DU-145 prostate
  GI50: 2.11 µM
  TGI: 3.72 µM
EKVX NSCLC
  GI50: 4.75 µM
  TGI: 26.9 µM
HCC-2998 colon
  GI50: 8.59 µM
  TGI: 21.9 µM
HCT-116 colon
  GI50: 2.68 µM
  TGI: 6.69 µM
HCT-15 colon
  GI50: 2.1 µM
  TGI: 4.64 µM
HL-60(TB) leukemia
  GI50: 2.75 µM
  TGI: 6.61 µM
HOP-62 NSCLC
  GI50: 1.82 µM
  TGI: 3.43 µM
HOP-92 NSCLC
  GI50: 4.42 µM
  TGI: 15.4 µM
HS 578T breast
  GI50: 4.58 µM
  TGI: 43.2 µM
HT29 colon
  GI50: 2.39 µM
  TGI: 5.53 µM
IGROV1 ovarian
  GI50: 4.34 µM
  TGI: 13.9 µM
K-562 leukemia
  GI50: 3.62 µM
  TGI: 16.5 µM
KM12 colon
  GI50: 3.23 µM
  TGI: 9.26 µM
LOX IMVI melanoma
  GI50: 1.71 µM
  TGI: 3.65 µM
M14 melanoma
  GI50: 2.11 µM
  TGI: 4.35 µM
MALME-3M melanoma
  GI50: 1.89 µM
  TGI: 3.54 µM
MDA-MB-231 breast
  GI50: 5.27 µM
  TGI: > 100 µM
MDA-MB-435
  GI50: 1.94 µM
  TGI: 3.64 µM
MOLT-4 leukemia
  GI50: 5.36 µM
  TGI: 40.4 µM
NCI-H226 lung
  GI50: 1.88 µM
  TGI: 4.12 µM
NCI-H23 lung
  GI50: 1.76 µM
  TGI: 3.41 µM
NCI-H460 lung
  GI50: 11.6 µM
  TGI: 31.1 µM
NCI-H522 lung
  GI50: 2.05 µM
  TGI: 3.9 µM
NCI/ADR-RES ovarian
  GI50: 2.68 µM
  TGI: 7 µM
OVCAR-3 ovarian
  GI50: 2.51 µM
  TGI: 5.44 µM
OVCAR-4 ovarian
  GI50: 1.57 µM
  TGI: 2.95 µM
OVCAR-5 ovarian
  GI50: 2.38 µM
  TGI: 5.46 µM
OVCAR-8 ovarian
  GI50: 3.37 µM
  TGI: 12.9 µM
PC-3 prostate
  GI50: 4.29 µM
  TGI: 24.5 µM
RPMI-8226 leukemia
  GI50: 3.2 µM
RXF 393 renal
  GI50: 2.45 µM
  TGI: 6.03 µM
SF-268 CNS
  GI50: 4.21 µM
  TGI: 14.5 µM
SF-295 CNS
  GI50: 2.12 µM
  TGI: 4.75 µM
SF-539 CNS
  GI50: 2.37 µM
  TGI: 6.01 µM
SK-MEL-2 melanoma
  GI50: 2.34 µM
  TGI: 4.46 µM
SK-MEL-28 melanoma
  GI50: 2.38 µM
  TGI: 4.44 µM
SK-MEL-5 melanoma
  GI50: 1.63 µM
  TGI: 3.01 µM
SK-OV-3 ovarian
  GI50: 3.59 µM
  TGI: 12.3 µM
SN12C renal
  GI50: 2.75 µM
  TGI: 6.45 µM
SNB-19 CNS
  GI50: 12.9 µM
  TGI: 29.2 µM
SNB-75 CNS
  GI50: 2.11 µM
  TGI: 4.08 µM
SR leukemia
  GI50: 2.24 µM
  TGI: 7.61 µM
SW-620 colon
  GI50: 2.31 µM
  TGI: 4.84 µM
T-47D breast
  GI50: 2.52 µM
  TGI: 7.85 µM
TK-10 renal
  GI50: 15.4 µM
  TGI: 28.9 µM
U251 CNS
  GI50: 2.71 µM
  TGI: 6.65 µM
UACC-257 melanoma
  GI50: 1.66 µM
  TGI: 3.72 µM
UACC-62 melanoma
  GI50: 2.01 µM
  TGI: 4.05 µM
UO-31 renal
  GI50: 2.25 µM
  TGI: 7.4 µM
